In this test the target is T1, RIPK2 (full length FLAG His tagged RIPK2; RIP2 kinase) (Homo sapiens, UniProt O43353).
T1 construct: Full length FLAG His tagged RIPK2 was purified from a Baculovirus expression system; FLAG (N); 6His (N); made in house; host or cells: Spodoptera frugiperda (Sf9) insect cells, baculovirus
The experiment in a line: Fluorescent polarization based binding assay, competition with a fluorescently labeled ATP competitive ligand at the ATP binding pocket of RIPK2. The settings on record: pIC50s averaged, minimum of 2 experiments; fluorescent ligand 5 nM; read-out: mean pIC50 (converted). From the text:
A fluorescent polarization based binding assay was developed to quantitate interaction of novel test compounds at the ATP binding pocket of RIPK2, by competition with a fluorescently labeled ATP competitive ligand. Full length FLAG His tagged RIPK2 was purified from a Baculovirus expression system and was used at a final assay concentration of twice the KDapparent. A fluorescent labeled ligand (5-({[2-({[3-({4-[(5-hydroxy-2-methylphenyl)amino]-2-pyrimidinyl}amino)phenyl]carbonyl}amino)ethyl]amino}carbonyl)-2-(6-hydroxy-3-oxo-3H-xanthen-9-yl)benzoic acid, prepared as described below) was used at a final assay concentration of 5 nM. Both the enzyme and ligand were prepared in solutions in 50 mM HEPES pH7.5, 150 mM NaCl, 10 mM MgCl2, 1 mM DTT, and 1 mM CHAPS. Test compounds were prepared in 100% DMSO and […] was dispensed to individual wells of a multiwell plate. Next, 5 ul RIPK2 was added to the test compounds at twice the final assay concentration, and incubated at room temperature for 10 minutes. […] Finally, samples were read on an instrument capable of measuring fluorescent polarization. Test compound inhibition was expressed as percent (%) inhibition of internal assay controls.
For concentration response experiments, normalized data were fit and pIC50s determined using conventional techniques. […]

T1 sequence (O43353 whole entry): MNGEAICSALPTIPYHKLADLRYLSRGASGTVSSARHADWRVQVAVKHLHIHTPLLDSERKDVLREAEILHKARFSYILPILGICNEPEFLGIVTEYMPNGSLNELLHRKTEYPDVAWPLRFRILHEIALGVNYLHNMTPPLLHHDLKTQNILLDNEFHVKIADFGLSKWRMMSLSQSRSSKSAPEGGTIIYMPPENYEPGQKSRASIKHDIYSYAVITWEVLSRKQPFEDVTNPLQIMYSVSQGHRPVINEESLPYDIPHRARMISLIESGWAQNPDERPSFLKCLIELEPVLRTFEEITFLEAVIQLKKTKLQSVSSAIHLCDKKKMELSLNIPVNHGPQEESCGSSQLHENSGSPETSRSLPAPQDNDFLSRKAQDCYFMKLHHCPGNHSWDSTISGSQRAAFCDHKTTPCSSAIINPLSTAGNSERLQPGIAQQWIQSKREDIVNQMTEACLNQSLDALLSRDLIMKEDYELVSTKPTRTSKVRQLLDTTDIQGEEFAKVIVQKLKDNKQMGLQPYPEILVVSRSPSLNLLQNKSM

For the compound `COCCNC(=O)c1ccc2c(c1)nc(-c1cnc(-c3ccccc3)[nH]1)n2CCOC` [Example 39, N,1-bis[2-(methyloxy)ethyl]-2-(2-phenyl-1H-imidazol-4-yl)-1H-benzimidazole-5-carboxamide], the IC50 was 10 µM. With `CNC(=O)c1ccc2c(c1)nc(-c1c[nH]c(-c3ccc(Cl)cc3)n1)n2Cc1ccccn1` [Example 2, 2-[2-(4-chlorophenyl)-1H-imidazol-4-yl]-N-methyl-1-(2-pyridinylmethyl)-1H-benzimidazole-5-carboxamide] the figure was 10 µM.

These data come from patent US20130018039A1, “IMIDAZOLYL-IMIDAZOLES AS KINASE INHIBITORS” (priority 2010, published 2013).
